≈ marks a conversion by molar mass, not a printed value. Where two headings read alike, the source gives them in different places.
What was measured:
[1] = Chemical stability (degradation kinetics) in acidic aqueous media, HPLC recovery; format: physicochemical; conditions: for Amount of degradation after 2 h: pH ca. 1.2, 37° C., acetonitrile/0.1 M aqueous HCl (2:3); for Chemical stability at pH ca. 1.2: degradation after 2 h at 37° C.: pH ca. 1.2, 2 h
Method: Degradation kinetics is used to simulate chemical stability of compounds in the acidic part of the gastro intestinal tract. […] Their application as medical drugs to treat human diseases is therefore less restricted and troublesome.
The chemical stability of the compounds of the invention at pH value of ca. 1.2 is determined as follows:
Compound is dissolved in an HPLC vial either in a mixture of acetonitrile/0.1 M aqueous HCl (2:3; pH ca. 1.2) or in a mixture of acetonitrile/Mcllvaine buffer pH 7.4 (2:3) to get a concentration of approximately 0.25 mg/ml. The vial was then transferred into an HPLC autosampler system and maintained at a temperature of 37° C. A first sample is taken and injected immediately into a standard HPLC system with a UV DAD detector. Further samples are injected after 2, 4, 6, 8 and 10 hours. Amount of degraded compound is measured by determining the recovery rate of compound [%] for each injection using an HPLC standard gradient method. Therefore the peak area of the main peak for the first injection (AUt0) is determined and set as 100%. Peak area of the main peak is determined also for the further injections (AUtn, n=2, 4, 6, 8, 10) and expressed as fraction of […] [%].

[2] = Aqueous solubility in buffer vs acetonitrile/water, LC-UV; format: physicochemical; conditions: kinetic from dmso stock, pH 6.8 buffer, 24 h shaking, 2.5% DMSO
Method: The aqueous solubility of the compounds of the invention is determined by comparing the amount dissolved in buffer to the amount in an acetonitrile/water (1/1) solution. Starting from a 10 mM DMSO stock solution aliquots are diluted with acetonitrile/water (1/1) or buffer, respectively. After 24 h of shaking, the solutions are filtrated and analyzed by LC-UV. The amount dissolved in buffer is compared to the amount in the acetonitrile solution.
Solubility is usually being measured from 0.001 to 0.125 mg/mL at a DMSO concentration of 2.5%. If more than 90% of the compound is dissolved in buffer, the value is marked with “>”.

human GPR40 receptor = human GPR40 receptor (Homo sapiens (Human), UniProt O14842); experiment: IP1 accumulation measurements using the IPOne assay system; format: cell-based
Method: IP1 accumulation measurements using the IPOne assay system—1321N1 cells stably expressing human GPR40 receptor (Euroscreen, Belgium) are seeded 24 h before the assay in white 384-well plates in culture medium containing 10% FCS, 1% Na-Pyruvate and 400 μg/mL G418. IP1 is assayed according to the manufacturer's description (Cisbio Bioassays, France). In brief, the assay is started by substitution of the culture medium by stimulation buffer (Hepes 10 mM, CaCl2 1 mM, MgCl2 0.5 mM, KCl 4.2 mM, NaCl 146 mM, glucose 5.5 mM and LiCl 50 mM, pH 7.4). Cells are stimulated for 1 h at 37° C., 5% CO2 by addition of the compounds that are diluted in stimulation buffer containing LiCl. Assays are stopped by adding HTRF-conjugates (IP1-d2 and Anti-IP1 cryptate Tb) and lysis buffer, provided by the manufacturer. After an incubation time of 1 h at room temperature plates are measured using an EnVision™, Perkin Elmer. The obtained fluorescence ratios at 665/615 […] are then used to calculate the pEC50 values using Assay Explorer 3.3 Software (Accelrys, Inc.) by interpolation using an IP1 reference curve and subsequent sigmoidal curve fitting allowing for a variable hill slope.

[3] = target: cytochrome P450 2C8-isoenzyme (Homo sapiens (Human), UniProt P10632); experiment: Inhibition of CYP-2C8 (amodiaquine deethylation, human liver microsomes); format: in vitro ADME; conditions: amodiaquine 1 μM, 37° C.
Method: (§1) All assays are carried out on a robotic system in 96 well plates. The final incubation volume contains TRIS buffer (0.1 M), MgCl2 (5 mM), human liver microsomes (0.05 mg/mL), amodiaquine (1 μM) and the test compound at five different concentrations or no compound (high control) in duplicate (e.g. highest concentration 10-50 μM with subsequent serial 1:4 dilutions). Following a short preincubation period, reactions are started with the cofactor (NADPH, 1 mM) and stopped by cooling the incubation down to 8° C. and subsequently by addition of one volume of acetonitrile. An internal standard solution—the stable isotope d5-desethylamodiaquine—is added after quenching of incubations. Peak area analyte (=metabolite formed) and internal standard is determined by LC-MS/MS. The resulting peak area ratio analyte to internal standard in these incubations is compared to a control activity containing no test compound. Within each of the assay runs, the IC50 of a positive control inhibitor (Montelukast) is determined.

[4] = target: cytochrome P450 2C9-isoenzyme (Homo sapiens (Human), UniProt P11712); experiment: Inhibition of CYP-2C9 (diclofenac hydroxylation, human liver microsomes); format: in vitro ADME; conditions: diclofenac 10 μM, 37° C.
Method: as §1, with “(0.1” for “(0.05”, “diclofenac (10” for “amodiaquine (1”, “(e.g.,” for “(e.g.”, “^13C6-hydroxydiclofenac—is” for “d5-desethylamodiaquine—is”, “(sulfaphenazole)” for “(Montelukast)”

[5] = 1321N1 cells stably expressing human GPR40, IP1 accumulation, read-out: EC50
[6] = given as IC50, own-compound values equal the EC50 of Table 2, read-out: GPR40: IC50

Chain of cytochrome P450 2C8-isoenzyme (P10632 whole entry): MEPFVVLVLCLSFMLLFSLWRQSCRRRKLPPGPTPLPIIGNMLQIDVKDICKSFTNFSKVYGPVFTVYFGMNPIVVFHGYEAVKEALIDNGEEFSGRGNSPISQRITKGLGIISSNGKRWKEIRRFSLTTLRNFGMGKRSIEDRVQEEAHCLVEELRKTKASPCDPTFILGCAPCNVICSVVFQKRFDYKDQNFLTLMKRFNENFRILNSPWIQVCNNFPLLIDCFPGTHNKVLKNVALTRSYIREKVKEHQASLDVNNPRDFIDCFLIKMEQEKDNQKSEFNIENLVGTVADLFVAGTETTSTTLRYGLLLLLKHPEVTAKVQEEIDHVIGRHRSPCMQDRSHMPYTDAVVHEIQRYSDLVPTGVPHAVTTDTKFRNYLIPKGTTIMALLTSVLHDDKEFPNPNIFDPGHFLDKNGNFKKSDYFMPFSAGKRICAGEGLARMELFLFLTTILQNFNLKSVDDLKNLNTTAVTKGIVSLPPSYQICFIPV
Chain of human GPR40 receptor (O14842 whole entry): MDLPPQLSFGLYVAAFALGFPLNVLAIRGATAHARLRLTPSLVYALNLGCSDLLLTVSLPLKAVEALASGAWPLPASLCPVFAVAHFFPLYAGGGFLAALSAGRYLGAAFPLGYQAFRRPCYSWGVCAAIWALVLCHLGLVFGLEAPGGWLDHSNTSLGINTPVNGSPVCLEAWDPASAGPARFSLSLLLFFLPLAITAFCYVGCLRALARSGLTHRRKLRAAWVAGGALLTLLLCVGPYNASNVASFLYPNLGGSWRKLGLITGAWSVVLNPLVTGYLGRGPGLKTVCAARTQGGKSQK
Chain of cytochrome P450 2C9-isoenzyme (P11712 whole entry): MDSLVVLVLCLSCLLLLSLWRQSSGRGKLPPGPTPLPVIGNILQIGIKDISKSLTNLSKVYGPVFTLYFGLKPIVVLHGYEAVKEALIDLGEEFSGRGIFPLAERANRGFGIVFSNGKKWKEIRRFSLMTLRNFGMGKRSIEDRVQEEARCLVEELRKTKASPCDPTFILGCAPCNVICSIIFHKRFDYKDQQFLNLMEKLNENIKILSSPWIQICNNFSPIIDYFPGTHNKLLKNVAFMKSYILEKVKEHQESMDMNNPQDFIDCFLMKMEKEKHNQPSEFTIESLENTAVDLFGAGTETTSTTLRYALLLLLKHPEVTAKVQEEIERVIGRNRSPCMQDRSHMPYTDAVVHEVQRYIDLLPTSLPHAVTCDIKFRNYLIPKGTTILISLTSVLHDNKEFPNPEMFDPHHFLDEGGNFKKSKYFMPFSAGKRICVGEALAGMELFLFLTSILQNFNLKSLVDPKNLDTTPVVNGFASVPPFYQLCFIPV

SMILES | Amount of degradation after 2 h [1] | Chemical stability at pH ca. 1.2: degradation after 2 h at 37° C. [1] | solubility at 24 h ([2]; buffer pH 6.8, aqueous buffer) | EC50 (human GPR40 receptor; [5]) | EC50 (human GPR40 receptor; [6]) | IC50 [3] | IC50 [4] | solubility at 24 h ([2]; aqueous buffer)
Cc1cc(OCCC(C)(C)O)cc(C)c1-c1ccc(F)c2c1CC[C@H]2Oc1ccc([C@H]2C[C@@H]2C(=O)O)cc1 [Example 17 in WO 2013/178575, reference compound] | 8% | 8% | < 1 µg/mL |  |  |  |  | 
Cc1cc(OCCC(C)(C)O)cc(C)c1-c1ccc(F)c2c1CC[C@H]2Nc1cnc([C@H]2C[C@@H]2C(=O)O)cn1 [Example 2, (1S,2S)-2-(5-{(R)-7-Fluoro-4-[4-(3-hydroxy-3-methyl-butoxy)-2,6-dimethyl-phenyl]-indan-1-ylamino}-pyrazin-2-yl)-cyclopropanecarboxylic acid] | <0.5% | < 0.5% | 87 µg/mL (≈ 167 µM) | 4 nM | 4 nM | > 50000 nM | > 50000 nM | 
Cc1cc(OCCC(C)(C)O)cc(C)c1-c1cccc2c1CC[C@H]2Nc1cnc([C@H]2C[C@@H]2C(=O)O)cn1 [Example 7, (1S,2S)-2-(5-{(R)-4-[4-(3-Hydroxy-3-methyl-butoxy)-2,6-dimethyl-phenyl]-indan-1-ylamino}-pyrazin-2-yl)-cyclopropanecarboxylic acid] | <1% |  |  | 4 nM |  |  |  | 
Cc1cc(-c2nnn(C)n2)cc(C)c1-c1ccc(F)c2c1CC[C@H]2Nc1cnc([C@H]2C[C@@H]2C(=O)O)cn1 [Example 35] | <1% | < 1% |  |  | 2 nM | 21000 nM | 32000 nM | 34 µg/mL (≈ 68.1 µM)
Cc1cc(OCCCS(C)(=O)=O)cc(C)c1-c1ccc(F)c2c1CC[C@H]2Nc1cnc([C@H]2C[C@@H]2C(=O)O)cn1 [Example 4, (1S,2S)-2-(5-{(R)-7-Fluoro-4-[4-(3-methanesulfonyl-propoxy)-2,6-dimethyl-phenyl]-indan-1-ylamino}-pyrazin-2-yl)-cyclopropanecarboxylic acid] | <0.5% | < 0.5% | 92 µg/mL (≈ 166 µM) | 8 nM | 8 nM | > 50000 nM | > 50000 nM | 
Cc1cc(OCCCS(C)(=O)=O)cc(C)c1-c1ccc(F)c2c1CC[C@H]2Oc1ccc([C@H]2C[C@@H]2C(=O)O)cc1 [Example 11 in WO 2013/178575, reference compound] | 5% | 5% |  |  | 8 nM | 12000 nM | 17000 nM | 
Cc1cccc(C)c1-c1ccc(F)c2c1CC[C@H]2Oc1ccc(C2CC2C(=O)O)cc1 (stereo partly drawn) [Example 33 in WO 2013/178575, reference compound] | 8% |  |  |  |  |  |  | 
Cc1cc(-c2nnn(C)n2)cc(C)c1-c1ccc(F)c2c1CC[C@H]2Oc1ccc([C@H]2C[C@@H]2C(=O)O)cc1 [Example 45 in WO 2013/178575, reference compound] |  |  | < 1 µg/mL |  |  |  |  | 
Cc1c(C#N)cccc1-c1ccc(F)c2c1CC[C@H]2Oc1ccc([C@H]2C[C@@H]2C(=O)O)cc1 [Example 54 in WO 2013/178575, reference compound] | 2.5%^ |  |  |  |  |  |  | 

Source: patent US10253004B2, “Indanylaminopyrazinylcyclopropanecarboxylic acids, pharmaceutical compositions and uses thereof” (Boehringer Ingelheim International GmbH, priority 2017, dated 2019)
